Assay results published in paper PMC8550792, “Evolution of kinase polypharmacology across HSP90 drug discovery” (Cell Chemical Biology, 2021).

Key:
[1] = tested on: HSP90AB1; set-up: method as in ChEMBL23 (accessed: 23/08/2018); conditions: average of reported values; ref ChEMBL23 (accessed: 23/08/2018); cited from earlier work
[2] = molecular target: T1, BLK (Homo sapiens, UniProt P51451); assay: HotSpot in vitro kinase radiometric assay; assay type: biochemical
T1 construct: purchased Reaction Biology (HotSpot contract assay)
T1 sequence (P51451 whole entry): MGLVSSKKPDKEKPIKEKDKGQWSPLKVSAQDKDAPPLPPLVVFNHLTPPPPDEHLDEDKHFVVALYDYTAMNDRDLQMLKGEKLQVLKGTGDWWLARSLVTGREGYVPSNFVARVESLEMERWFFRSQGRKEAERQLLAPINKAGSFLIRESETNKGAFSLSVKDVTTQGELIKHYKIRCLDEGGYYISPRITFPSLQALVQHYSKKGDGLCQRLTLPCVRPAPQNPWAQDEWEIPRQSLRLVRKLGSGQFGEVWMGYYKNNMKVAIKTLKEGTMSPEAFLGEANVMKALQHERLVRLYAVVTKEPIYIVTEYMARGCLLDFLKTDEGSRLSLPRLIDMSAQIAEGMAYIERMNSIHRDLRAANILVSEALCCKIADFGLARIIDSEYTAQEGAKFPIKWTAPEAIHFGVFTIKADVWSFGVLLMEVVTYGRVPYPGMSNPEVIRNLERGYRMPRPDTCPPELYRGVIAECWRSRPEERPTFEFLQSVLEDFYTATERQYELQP
Summary of the method: (§1)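 Radiometric catalytic assay: compounds incubated with kinase, substrate, cofactors and ³²P- or ³³P-γ-ATP. Reactions spotted onto filter paper that binds the labeled product, giving a direct measure of inhibition of catalytic activity without modified substrates or coupling enzymes.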

[3] = molecular target: T2, PDK4/PDKH4 (Homo sapiens, UniProt Q16654); assay: HotSpot in vitro kinase radiometric assay; assay type: biochemical
T2 construct: purchased Reaction Biology (HotSpot contract assay)
T2 sequence (Q16654 whole entry): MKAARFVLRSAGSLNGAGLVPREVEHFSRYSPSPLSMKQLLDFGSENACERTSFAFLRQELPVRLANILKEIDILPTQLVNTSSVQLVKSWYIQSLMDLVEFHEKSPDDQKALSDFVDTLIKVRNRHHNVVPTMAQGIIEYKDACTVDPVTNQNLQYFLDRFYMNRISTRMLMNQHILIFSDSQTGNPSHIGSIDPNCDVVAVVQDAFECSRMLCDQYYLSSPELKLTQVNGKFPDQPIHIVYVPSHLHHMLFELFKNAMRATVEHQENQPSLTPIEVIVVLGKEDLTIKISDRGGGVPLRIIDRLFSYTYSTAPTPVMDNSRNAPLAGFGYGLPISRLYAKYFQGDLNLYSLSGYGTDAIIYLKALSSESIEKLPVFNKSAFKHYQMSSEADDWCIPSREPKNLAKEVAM
Summary of the method: as §1

[4] = molecular target: T3, PDK2/PDHK2 (Homo sapiens, UniProt Q15119); assay: HotSpot in vitro kinase radiometric assay; assay type: biochemical; conditions: read-out: % inhibition at 10 uM: PDK2
T3 construct: purchased Reaction Biology (HotSpot contract assay)
Summary of the method: as §1

[5] = molecular target: T4, LYN B (Homo sapiens, UniProt P07948); assay: HotSpot in vitro kinase radiometric assay; assay type: biochemical
T4 construct: purchased Reaction Biology (HotSpot contract assay)
Summary of the method: as §1

[6] = molecular target: T5, c-Src (Homo sapiens, UniProt P12931); assay: HotSpot in vitro kinase radiometric assay; assay type: biochemical
T5 construct: purchased Reaction Biology (HotSpot contract assay)
Summary of the method: as §1

[7] = molecular target: DDR1 (Homo sapiens, UniProt Q08345); assay: HotSpot in vitro kinase radiometric assay; assay type: biochemical; set-up: purchased Reaction Biology (HotSpot contract assay)
[8] = tested on: ROCK1; set-up: method as in ChEMBL23 (accessed: 23/08/2018); conditions: average of reported values; ref ChEMBL23 (accessed: 23/08/2018); cited from earlier work
[9] = tested on: PRKD2; set-up: method as in ChEMBL23 (accessed: 23/08/2018); conditions: average of reported values; ref ChEMBL23 (accessed: 23/08/2018); cited from earlier work
[10] = molecular target: T6, TRKC (Homo sapiens, UniProt Q16288); assay: HotSpot in vitro kinase radiometric assay; assay type: biochemical
T6 construct: purchased Reaction Biology (HotSpot contract assay)
T6 sequence (Q16288 32-839): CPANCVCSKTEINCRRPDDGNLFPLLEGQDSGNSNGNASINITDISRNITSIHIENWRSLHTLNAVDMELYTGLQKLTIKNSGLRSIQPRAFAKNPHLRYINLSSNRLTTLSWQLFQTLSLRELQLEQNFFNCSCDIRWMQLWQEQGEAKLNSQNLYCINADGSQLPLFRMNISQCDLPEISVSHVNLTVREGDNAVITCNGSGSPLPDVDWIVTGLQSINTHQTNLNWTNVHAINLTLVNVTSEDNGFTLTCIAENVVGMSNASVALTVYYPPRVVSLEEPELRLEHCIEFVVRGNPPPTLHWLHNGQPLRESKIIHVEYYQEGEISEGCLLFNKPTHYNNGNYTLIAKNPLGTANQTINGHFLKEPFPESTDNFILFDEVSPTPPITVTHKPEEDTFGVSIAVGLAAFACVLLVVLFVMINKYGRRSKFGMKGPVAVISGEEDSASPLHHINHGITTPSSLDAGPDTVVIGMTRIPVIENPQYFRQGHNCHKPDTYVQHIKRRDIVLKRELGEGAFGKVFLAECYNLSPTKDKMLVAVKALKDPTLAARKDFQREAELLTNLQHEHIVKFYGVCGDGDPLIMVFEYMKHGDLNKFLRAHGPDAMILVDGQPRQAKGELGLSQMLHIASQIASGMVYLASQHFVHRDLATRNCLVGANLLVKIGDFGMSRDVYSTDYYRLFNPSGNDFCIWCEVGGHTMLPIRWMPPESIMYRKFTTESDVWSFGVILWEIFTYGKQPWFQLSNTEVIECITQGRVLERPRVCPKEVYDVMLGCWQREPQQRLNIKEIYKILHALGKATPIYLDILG

[11] = tested on: RPS6KA3; set-up: method as in ChEMBL23 (accessed: 23/08/2018); conditions: average of reported values; ref ChEMBL23 (accessed: 23/08/2018); cited from earlier work
[12] = tested on: ROCK2; set-up: method as in ChEMBL23 (accessed: 23/08/2018); conditions: average of reported values; ref ChEMBL23 (accessed: 23/08/2018); cited from earlier work
[13] = tested on: PIM1; set-up: method as in ChEMBL23 (accessed: 23/08/2018); conditions: average of reported values; ref ChEMBL23 (accessed: 23/08/2018); cited from earlier work
[14] = molecular target: T7, PEAK1 (Homo sapiens, UniProt Q9H792); assay: HotSpot in vitro kinase radiometric assay; assay type: biochemical
T7 construct: purchased Reaction Biology (HotSpot contract assay)

[15] = molecular target: T8, ABL2/ARG (Homo sapiens, UniProt P42684); assay: HotSpot in vitro kinase radiometric assay; assay type: biochemical
T8 construct: purchased Reaction Biology (HotSpot contract assay)
T8 sequence (P42684 whole entry): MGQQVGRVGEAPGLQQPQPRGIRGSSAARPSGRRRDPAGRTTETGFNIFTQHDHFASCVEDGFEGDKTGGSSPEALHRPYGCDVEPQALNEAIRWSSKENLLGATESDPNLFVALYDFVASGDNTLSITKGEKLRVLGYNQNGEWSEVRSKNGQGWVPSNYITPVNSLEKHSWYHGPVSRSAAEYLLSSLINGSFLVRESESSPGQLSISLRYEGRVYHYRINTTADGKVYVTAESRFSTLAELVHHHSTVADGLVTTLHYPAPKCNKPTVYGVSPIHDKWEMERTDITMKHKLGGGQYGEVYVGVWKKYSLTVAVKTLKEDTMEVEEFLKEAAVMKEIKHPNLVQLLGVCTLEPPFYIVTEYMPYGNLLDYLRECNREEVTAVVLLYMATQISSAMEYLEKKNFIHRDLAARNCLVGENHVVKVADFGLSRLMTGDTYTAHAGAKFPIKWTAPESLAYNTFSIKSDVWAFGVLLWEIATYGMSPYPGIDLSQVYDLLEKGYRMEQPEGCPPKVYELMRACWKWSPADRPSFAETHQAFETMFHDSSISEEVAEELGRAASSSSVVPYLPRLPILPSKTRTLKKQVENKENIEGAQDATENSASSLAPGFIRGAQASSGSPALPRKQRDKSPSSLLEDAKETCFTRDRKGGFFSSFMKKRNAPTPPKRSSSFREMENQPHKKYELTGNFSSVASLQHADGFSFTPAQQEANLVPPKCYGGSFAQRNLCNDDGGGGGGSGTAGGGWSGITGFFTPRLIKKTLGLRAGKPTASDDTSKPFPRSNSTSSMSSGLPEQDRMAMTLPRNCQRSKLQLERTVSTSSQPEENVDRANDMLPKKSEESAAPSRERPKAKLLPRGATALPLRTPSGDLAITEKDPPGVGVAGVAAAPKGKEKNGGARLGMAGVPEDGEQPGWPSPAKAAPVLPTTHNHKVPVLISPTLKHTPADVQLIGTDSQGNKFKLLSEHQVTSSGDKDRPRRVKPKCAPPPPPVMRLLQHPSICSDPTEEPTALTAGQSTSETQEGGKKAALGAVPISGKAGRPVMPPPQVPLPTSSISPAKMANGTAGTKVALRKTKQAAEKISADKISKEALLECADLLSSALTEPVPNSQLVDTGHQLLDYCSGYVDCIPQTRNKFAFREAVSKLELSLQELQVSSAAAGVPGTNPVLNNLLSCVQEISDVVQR

[16] = molecular target: T9, YES/YES1 (Homo sapiens, UniProt P07947); assay: HotSpot in vitro kinase radiometric assay; assay type: biochemical
T9 construct: purchased Reaction Biology (HotSpot contract assay)

[17] = tested on: CDK2; set-up: method as in ChEMBL23 (accessed: 23/08/2018); conditions: average of reported values; ref ChEMBL23 (accessed: 23/08/2018); cited from earlier work
[18] = tested on: CSF1R; set-up: method as in ChEMBL23 (accessed: 23/08/2018); conditions: average of reported values; ref ChEMBL23 (accessed: 23/08/2018); cited from earlier work
[19] = molecular target: T10, FYN (Homo sapiens, UniProt P06241); assay: HotSpot in vitro kinase radiometric assay; assay type: biochemical
T10 construct: purchased Reaction Biology (HotSpot contract assay)
T10 sequence (P06241 whole entry): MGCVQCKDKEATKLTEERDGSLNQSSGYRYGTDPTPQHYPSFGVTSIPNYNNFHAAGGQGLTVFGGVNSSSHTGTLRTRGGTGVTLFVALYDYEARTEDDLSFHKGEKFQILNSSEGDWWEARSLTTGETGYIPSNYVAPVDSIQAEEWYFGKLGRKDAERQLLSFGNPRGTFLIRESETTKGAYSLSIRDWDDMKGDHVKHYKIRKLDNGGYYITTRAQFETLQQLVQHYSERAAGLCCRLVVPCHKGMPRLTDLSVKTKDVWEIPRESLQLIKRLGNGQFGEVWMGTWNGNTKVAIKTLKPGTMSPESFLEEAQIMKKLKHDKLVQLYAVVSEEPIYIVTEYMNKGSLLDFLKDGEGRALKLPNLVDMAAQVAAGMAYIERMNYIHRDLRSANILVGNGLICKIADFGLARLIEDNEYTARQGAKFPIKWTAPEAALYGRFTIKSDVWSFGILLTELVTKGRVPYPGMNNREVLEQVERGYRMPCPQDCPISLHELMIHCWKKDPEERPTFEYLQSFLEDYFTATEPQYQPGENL

[20] = molecular target: T11, FGR (Homo sapiens, UniProt P09769); assay: HotSpot in vitro kinase radiometric assay; assay type: biochemical
T11 construct: purchased Reaction Biology (HotSpot contract assay)

[21] = molecular target: ABL1 (Homo sapiens, UniProt P00519); assay: HotSpot in vitro kinase radiometric assay; assay type: biochemical; set-up: purchased Reaction Biology (HotSpot contract assay)
[22] = tested on: PRKD3; set-up: method as in ChEMBL23 (accessed: 23/08/2018); conditions: average of reported values; ref ChEMBL23 (accessed: 23/08/2018); cited from earlier work
[23] = molecular target: T12, PASK (Homo sapiens, UniProt Q96RG2); assay: HotSpot in vitro kinase radiometric assay; assay type: biochemical
T12 construct: purchased Reaction Biology (HotSpot contract assay)
T12 sequence (Q96RG2 whole entry): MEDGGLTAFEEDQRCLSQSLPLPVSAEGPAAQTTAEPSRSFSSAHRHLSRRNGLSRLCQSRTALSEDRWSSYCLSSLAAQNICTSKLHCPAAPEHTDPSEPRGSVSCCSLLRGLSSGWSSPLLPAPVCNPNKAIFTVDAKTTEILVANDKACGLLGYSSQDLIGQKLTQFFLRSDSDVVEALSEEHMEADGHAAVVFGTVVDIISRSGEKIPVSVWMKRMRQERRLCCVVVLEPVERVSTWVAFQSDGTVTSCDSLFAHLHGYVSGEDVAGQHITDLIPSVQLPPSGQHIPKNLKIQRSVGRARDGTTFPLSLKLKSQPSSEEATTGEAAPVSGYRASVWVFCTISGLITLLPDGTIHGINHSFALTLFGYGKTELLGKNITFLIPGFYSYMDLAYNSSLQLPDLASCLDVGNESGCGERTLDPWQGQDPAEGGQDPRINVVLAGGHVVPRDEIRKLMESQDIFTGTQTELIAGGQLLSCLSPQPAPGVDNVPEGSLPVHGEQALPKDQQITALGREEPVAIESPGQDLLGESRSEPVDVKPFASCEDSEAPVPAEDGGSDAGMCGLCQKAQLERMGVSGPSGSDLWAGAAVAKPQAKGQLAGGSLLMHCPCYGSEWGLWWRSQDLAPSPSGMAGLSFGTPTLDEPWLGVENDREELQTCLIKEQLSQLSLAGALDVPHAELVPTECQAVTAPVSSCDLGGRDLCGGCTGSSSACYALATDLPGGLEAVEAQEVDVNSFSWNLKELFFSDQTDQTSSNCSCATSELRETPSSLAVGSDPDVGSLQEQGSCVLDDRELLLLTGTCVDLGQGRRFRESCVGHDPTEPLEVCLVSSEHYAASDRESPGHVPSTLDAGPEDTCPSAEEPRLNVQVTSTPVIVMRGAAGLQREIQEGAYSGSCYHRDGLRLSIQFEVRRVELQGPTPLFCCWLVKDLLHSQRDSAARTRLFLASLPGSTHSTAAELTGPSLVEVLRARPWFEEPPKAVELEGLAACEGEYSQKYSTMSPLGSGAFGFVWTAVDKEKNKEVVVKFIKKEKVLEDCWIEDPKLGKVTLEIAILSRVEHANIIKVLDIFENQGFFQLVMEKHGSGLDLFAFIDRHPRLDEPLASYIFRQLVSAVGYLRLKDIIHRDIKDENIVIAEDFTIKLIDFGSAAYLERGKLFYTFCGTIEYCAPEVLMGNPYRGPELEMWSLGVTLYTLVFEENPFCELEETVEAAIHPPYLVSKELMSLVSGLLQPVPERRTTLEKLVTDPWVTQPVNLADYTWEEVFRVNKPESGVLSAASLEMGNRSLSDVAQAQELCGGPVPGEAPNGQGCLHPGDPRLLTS
Summary of the method: as §1

[24] = molecular target: T13, TRKA (Homo sapiens, UniProt P04629); assay: HotSpot in vitro kinase radiometric assay; assay type: biochemical
T13 construct: purchased Reaction Biology (HotSpot contract assay)
Summary of the method: as §1

[25] = molecular target: T14, LCK (Homo sapiens, UniProt P06239); assay: HotSpot in vitro kinase radiometric assay; assay type: biochemical
T14 construct: purchased Reaction Biology (HotSpot contract assay)

Q: Which “pActivity, HSP90AB1” value [1] does the source give for CCNC(=O)c1n[nH]c(-c2cc(Cl)c(O)cc2O)c1-c1ccc(OC)cc1 [VER-49009] here?
A: 7.6

Q: What about the remaining activity at 10 µM ([2]; read-out: % Enzyme Activity (relative to DMSO controls), BLK, 10uM, ATP 10 uM, Data 1, Data 2) of the same molecule?
A: 70.1%

Q: What about the inhibition at 10 µM ([2]; read-out: % inhibition at 10 uM: BLK) of the same molecule?
A: 24 ± 8%

Q: And the remaining activity at 10 µM ([3]; read-out: % Enzyme Activity (relative to DMSO controls), PDK4/PDKH4, 10uM, ATP 30 uM, Data 1, Data 2)?
A: 15.1%

Q: And the inhibition at 10 µM ([3]; read-out: % inhibition at 10 uM: PDK4)?
A: 86 ± 1%

Q: And the inhibition at 10 µM [4]?
A: 95 ± 5%

Q: What about the remaining activity at 10 µM ([5]; read-out: % Enzyme Activity (relative to DMSO controls), LYN B, 10uM, ATP 20 uM, Data 1, Data 2) of the same molecule?
A: 108%

Q: And the inhibition at 10 µM ([5]; read-out: % inhibition at 10 uM: LYN B)?
A: -6 ± 3%

Q: And the remaining activity at 10 µM ([6]; read-out: % Enzyme Activity (relative to DMSO controls), c-Src, 10uM, ATP 15 uM, Data 1, Data 2)?
A: 65.9%

Q: And the inhibition at 10 µM ([6]; read-out: % inhibition at 10 uM: SRC)?
A: 35 ± 1%

Q: And the remaining activity at 10 µM ([7]; read-out: % Enzyme Activity (relative to DMSO controls), DDR1, 10uM, ATP 100 uM, Data 1, Data 2)?
A: 65.8%

Q: And the inhibition at 10 µM ([7]; read-out: % inhibition at 10 uM: DDR1)?
A: 29 ± 8%

Q: And the “pActivity, ROCK1” value [8]?
A: 5.4

Q: And the “pActivity, PRKD2” value [9]?
A: 5.8

Q: And the remaining activity at 10 µM ([10]; read-out: % Enzyme Activity (relative to DMSO controls), TRKC, 10uM, ATP 100 uM, Data 1, Data 2)?
A: 68.4%

Q: What about the inhibition at 10 µM ([10]; read-out: % inhibition at 10 uM: TRKC) of the same molecule?
A: 28 ± 5%

Q: And the “pActivity, RPS6KA3” value [11]?
A: 5.5

Q: And the “pActivity, ROCK2” value [12]?
A: 5.6

Q: What about the “pActivity, PIM1” value [13] of the same molecule?
A: 5.6

Q: What about the remaining activity at 10 µM ([14]; read-out: % Enzyme Activity (relative to DMSO controls), PEAK1, 10uM, ATP 30 uM, Data 1, Data 2) of the same molecule?
A: 75.5%

Q: And the inhibition at 10 µM ([14]; read-out: % inhibition at 10 uM: PEAK1)?
A: 24%

Q: And the remaining activity at 10 µM ([15]; read-out: % Enzyme Activity (relative to DMSO controls), ABL2/ARG, 10uM, ATP 30 uM, Data 1, Data 2)?
A: 101%

Q: And the inhibition at 10 µM ([15]; read-out: % inhibition at 10 uM: ABL2)?
A: 1 ± 3%

Q: What about the remaining activity at 10 µM ([16]; read-out: % Enzyme Activity (relative to DMSO controls), YES/YES1, 10uM, ATP 50 uM, Data 1, Data 2) of the same molecule?
A: 77.2%

Q: What about the inhibition at 10 µM ([16]; read-out: % inhibition at 10 uM: YES) of the same molecule?
A: 24 ± 1%

Q: What about the “pActivity, CDK2” value [17] of the same molecule?
A: 5.2

Q: And the “pActivity, CSF1R” value [18]?
A: 5.9

Q: What about the remaining activity at 10 µM ([19]; read-out: % Enzyme Activity (relative to DMSO controls), FYN, 10uM, ATP 30 uM, Data 1, Data 2) of the same molecule?
A: 89.2%

Q: And the inhibition at 10 µM ([19]; read-out: % inhibition at 10 uM: FYN)?
A: 13 ± 3%

Q: And the remaining activity at 10 µM ([20]; read-out: % Enzyme Activity (relative to DMSO controls), FGR, 10uM, ATP 50 uM, Data 1, Data 2)?
A: 99%

Q: And the inhibition at 10 µM ([20]; read-out: % inhibition at 10 uM: FGR)?
A: 1%

Q: What about the remaining activity at 10 µM ([21]; read-out: % Enzyme Activity (relative to DMSO controls), ABL1, 10uM, ATP 40 uM, Data 1, Data 2) of the same molecule?
A: 80.2%

Q: And the inhibition at 10 µM ([21]; read-out: % inhibition at 10 uM: ABL1)?
A: 14 ± 8%

Q: And the “pActivity, PRKD3” value [22]?
A: 5.8

Q: And the remaining activity at 10 µM ([23]; read-out: % Enzyme Activity (relative to DMSO controls), PASK, 10uM, ATP 50 uM, Data 1, Data 2)?
A: 98%

Q: What about the inhibition at 10 µM ([23]; read-out: % inhibition at 10 uM: PASK) of the same molecule?
A: 2%

Q: What about the remaining activity at 10 µM ([24]; read-out: % Enzyme Activity (relative to DMSO controls), TRKA, 10uM, ATP 100 uM, Data 1, Data 2) of the same molecule?
A: 20.6%

Q: And the inhibition at 10 µM ([24]; read-out: % inhibition at 10 uM: TRKA)?
A: 79 ± 1%

Q: What about the remaining activity at 10 µM ([25]; read-out: % Enzyme Activity (relative to DMSO controls), LCK, 10uM, ATP 15 uM, Data 1, Data 2) of the same molecule?
A: 72.8%

Q: What about the inhibition at 10 µM ([25]; read-out: % inhibition at 10 uM: LCK) of the same molecule?
A: 25 ± 3%
